Test results taken from patent publication US20100120879A1, “INSECTICIDES AS SAFENER FOR FUNGICIDES WITH PHYTOTOXIC ACTION” (priority 2007, published 2010).

What was measured:
Phakopsora pachyrhizi = experiment: Fungicidal activity against soybean rust after seed treatment; type: in vivo; conditions: triticonazole 50 g, fipronil 50 g, gibberellic acid 1 g a.s. per 100 kg seeds
[1] = tested on: soybeans, variety "Conquista"; experiment: Vitality of the plants 14 days after sowing (visual score); conditions: visual scale 0 to 10, untreated = 5, each point = 20% improvement or deterioration, triticonazole 50 g, fipronil 50 g, gibberellic acid 1 g a.s. per 100 kg seeds
wheat = wheat treated with the azole fungicide; F. Montfort et al., Pesticide Science 46(4), 1996; cited from earlier work

## CC1(C)CCC(=Cc2ccc(Cl)cc2)C1(O)Cn1cncn1 (centres unmarked) [Triticonazole, triticonazole]
Phakopsora pachyrhizi; leaves in the middle part of the plant, 35 days after sowing, untreated 10.5
  Infection (percentage of diseased leaf area): 9%
Phakopsora pachyrhizi; lower part of the plant, 21 days after sowing, untreated 8.5
  Infection (percentage of diseased leaf area): 0%
Phakopsora pachyrhizi; lower part of the plant, 35 days after sowing, untreated 70
  Infection (percentage of diseased leaf area): 47%
[1]
  Vitality: 2
wheat
  Longitudinal growth of treated wheat: greatly reduced longitudinal growth
